The record followed here is ChEMBL document CHEMBL5532658 (Eur J Med Chem, 2024).

Calls of active or inactive are those of the source.

Series [1] concerns the target T1, Cyclin-dependent kinase-like 5 (Homo sapiens) (UniProt O76039).
T1 sequence (whole entry): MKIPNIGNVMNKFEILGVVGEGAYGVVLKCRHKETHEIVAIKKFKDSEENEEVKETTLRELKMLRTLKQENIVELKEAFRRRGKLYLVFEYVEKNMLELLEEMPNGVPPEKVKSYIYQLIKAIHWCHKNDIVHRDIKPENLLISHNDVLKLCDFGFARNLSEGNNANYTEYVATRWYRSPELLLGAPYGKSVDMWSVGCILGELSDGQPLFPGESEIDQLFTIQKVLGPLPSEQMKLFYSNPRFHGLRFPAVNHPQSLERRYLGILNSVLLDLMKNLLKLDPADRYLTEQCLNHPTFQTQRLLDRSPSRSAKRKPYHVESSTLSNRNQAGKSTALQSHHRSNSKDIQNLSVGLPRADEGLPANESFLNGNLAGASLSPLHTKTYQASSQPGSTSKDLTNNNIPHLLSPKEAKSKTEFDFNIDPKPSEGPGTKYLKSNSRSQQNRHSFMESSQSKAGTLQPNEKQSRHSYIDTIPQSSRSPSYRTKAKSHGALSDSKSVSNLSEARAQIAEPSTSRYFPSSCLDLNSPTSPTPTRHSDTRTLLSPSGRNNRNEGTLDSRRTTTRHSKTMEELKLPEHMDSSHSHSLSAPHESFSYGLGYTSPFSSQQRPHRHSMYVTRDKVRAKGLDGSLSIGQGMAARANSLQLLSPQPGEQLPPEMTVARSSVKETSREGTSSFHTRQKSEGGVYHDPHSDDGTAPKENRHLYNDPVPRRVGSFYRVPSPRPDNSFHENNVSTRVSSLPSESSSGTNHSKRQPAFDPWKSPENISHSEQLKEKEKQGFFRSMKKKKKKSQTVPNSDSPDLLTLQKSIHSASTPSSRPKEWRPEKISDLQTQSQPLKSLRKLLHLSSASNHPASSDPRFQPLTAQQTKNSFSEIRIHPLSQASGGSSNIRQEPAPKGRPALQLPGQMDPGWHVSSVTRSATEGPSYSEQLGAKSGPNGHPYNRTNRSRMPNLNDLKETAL
As to the kind of experiment: Inhibition of CDKL5 (unknown origin) at 1 uM by discoverX kinomescan assay.

The subject of series [2] is MDA-MB-453. As to the kind of experiment: Downregulation of Rb protein phosphorylation at Thr821 in human MDA-MB-453 cells incubated for 24 hrs by Western blot analysis. Format: functional, cell-based. The settings on record: dose 37-333 nM. A general note: A western blot detects proteins with antibodies after separation by electrophoresis.
In series [3] the test system is MDA-MB-231. The series can be described thus: Downregulation of Rb protein phosphorylation at Thr826 in human MDA-MB-231 cells incubated for 24 hrs by Western blot analysis. Format: functional, cell-based. Conditions: dose 37-333 nM.
Series [4] can be described thus: Oral bioavailability in CD1 mouse at 10 mg/kg measured upto 24 hrs by LC-MS/MS analysis. Format: ADME, organism-based. Conditions: in vivo.
Series [5] deals with CDK7/Cyclin H/MNAT1 (Homo sapiens, UniProt P50613). As to the kind of experiment: Inhibition of human His-tagged CDK7/cyclin H/MNAT1 expressed in baculovirus infected insect cells preincubated for 10 mins followed by substrate and ATP addition and measured after 60 mins by ADP-Glo kinase assay. Details: species or system Insect cell. Background: ADP-Glo first removes unused ATP, then detects ADP through luciferase.

Series [6] deals with MDA-MB-231. As to the kind of experiment: Downregulation of Rb protein phosphorylation at Ser608 in human MDA-MB-231 cells incubated for 24 hrs by Western blot analysis. It is filed as functional, cell-based. Conditions: dose 37-333 nM.
Series [7] can be described thus: AUC(0 to t) in CD1 mouse at 10 mg/kg, po measured upto 24 hrs by LC-MS/MS analysis. Format: ADME, organism-based. The settings on record: in vivo.
For series [8], the system named is MDA-MB-453. As to the kind of experiment: Downregulation of Rb protein phosphorylation at Ser780 in human MDA-MB-453 cells incubated for 24 hrs by Western blot analysis. It is filed as functional, cell-based. Conditions: dose 37-333 nM.
A short description of series [9]: AUC(0 to t) in CD1 mouse at 1 mg/kg, iv measured upto 24 hrs by LC-MS/MS analysis. Format: ADME, organism-based. The settings on record: in vivo.
Series [10] is described as follows: Half life in CD1 mouse at 10 mg/kg, po measured upto 24 hrs by LC-MS/MS analysis. Format: ADME, organism-based. The settings on record: in vivo.
The subject of series [11] is MDA-MB-453. As to the kind of experiment: Induction of cell cycle arrest in human MDA-MB-453 cells assessed as G0/G1 phase arrest at 12.3 to 1000 nM incubated for 24 hrs by PI staining based flow cytometry analysis. Format: functional. Conditions: dose 12.3-1000 nM.
In series [12] the test system is MDA-MB-231. As to the kind of experiment: Downregulation of Rb protein phosphorylation at Thr821 in human MDA-MB-231 cells incubated for 24 hrs by Western blot analysis. Format: functional, cell-based. The settings on record: dose 37-333 nM.
Series [13] relates to MDA-MB-453. The series can be described thus: Downregulation of Rb protein phosphorylation at Ser795 in human MDA-MB-453 cells incubated for 24 hrs by Western blot analysis. Format: functional, cell-based. Conditions: dose 37-333 nM.
The subject of series [14] is MDA-MB-231. As to the kind of experiment: Inhibition of RNA polymerase 2 C-terminal domain phosphorylation at Ser5 in heptad repeat in human MDA-MB-231 cells at 37 to 333 nM incubated for 24 hrs by Western blotting analysis. It is filed as cell-based. Conditions: dose 37-333 nM.

Sequence of CDK7/Cyclin H/MNAT1 (P51946 whole entry): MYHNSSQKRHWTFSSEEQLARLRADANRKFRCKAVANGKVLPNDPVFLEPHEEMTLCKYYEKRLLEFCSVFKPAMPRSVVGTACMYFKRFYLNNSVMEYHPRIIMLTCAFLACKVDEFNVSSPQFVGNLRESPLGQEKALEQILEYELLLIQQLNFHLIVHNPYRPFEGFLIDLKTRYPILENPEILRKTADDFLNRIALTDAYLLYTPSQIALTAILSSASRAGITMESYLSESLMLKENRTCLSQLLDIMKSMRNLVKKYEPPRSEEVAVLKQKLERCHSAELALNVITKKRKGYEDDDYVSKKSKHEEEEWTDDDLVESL
Sequence of CDK7/Cyclin H/MNAT1 (P50613 whole entry): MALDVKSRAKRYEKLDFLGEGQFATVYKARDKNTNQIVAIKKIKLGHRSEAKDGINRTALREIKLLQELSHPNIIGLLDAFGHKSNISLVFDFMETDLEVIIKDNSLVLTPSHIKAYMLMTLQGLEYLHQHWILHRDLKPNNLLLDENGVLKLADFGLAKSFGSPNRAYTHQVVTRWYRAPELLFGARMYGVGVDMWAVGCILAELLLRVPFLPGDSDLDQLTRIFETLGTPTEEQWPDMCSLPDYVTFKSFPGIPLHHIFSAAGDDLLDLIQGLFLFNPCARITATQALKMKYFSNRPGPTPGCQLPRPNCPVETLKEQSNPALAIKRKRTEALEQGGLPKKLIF
Sequence of CDK7/Cyclin H/MNAT1 (P51948 whole entry, further chain): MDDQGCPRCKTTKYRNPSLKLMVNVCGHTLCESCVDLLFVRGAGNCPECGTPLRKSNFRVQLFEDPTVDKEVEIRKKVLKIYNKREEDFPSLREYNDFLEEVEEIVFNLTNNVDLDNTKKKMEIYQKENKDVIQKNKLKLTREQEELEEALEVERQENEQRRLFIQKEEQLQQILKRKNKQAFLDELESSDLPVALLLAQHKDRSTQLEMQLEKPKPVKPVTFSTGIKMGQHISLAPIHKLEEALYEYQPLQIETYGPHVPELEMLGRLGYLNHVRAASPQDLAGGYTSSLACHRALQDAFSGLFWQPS

In the case of `CP(C)(=O)c1c(C#N)ccc2c(-c3nc(N[C@@H]4CNC[C@@H](F)C4)nc4ccsc34)c[nH]c12`, the inhibition entry in [1] is “inactive”. In addition, the Activity result in series [2], in [3], in series [6], in [8], in [12] and in [13] was “Dose-Dependent Effect” each time. This molecule came in with a bioavailability in [4] of 22.3%. The molecule further showed an IC50 in series [5] of 6.5 nM. In addition, the exposure AUC(0-t) at 24 h in series [7] amounted to 513 ng·h/mL; in series [9] it was 230 ng·h/mL. For the same molecule, in [10], the half-life was 2.11 h. Besides, the result in series [11] was Active. The inhibition result in [14] is “Active”.

Usually bioavailability stands for the share of a dose that reaches the circulation, judged against a reference dose that is usually intravenous. In general, IC50 refers to the point on the concentration scale where inhibition reaches its midpoint. A lower IC50 goes with greater potency. As a reminder, the AUC(0-t) is the area under the concentration-time curve up to a stated or last time point. A lower AUC(0-t) goes with less exposure. A word on the half-life: it is the time needed for the level to fall by half in the phase considered. A higher half-life goes with slow loss.
